Reference: patent US20110039799A1, “A1 ADENOSINE RECEPTOR AGONIST POLYMORPHS” (Gilead Palo Alto, Inc., priority 2009, published 2011)
Entries after “also recorded” stand apart in the source; their conditions may differ.

Tests used:
[1] = Water vapor sorption (dynamic vapor adsorption), hygroscopicity; format: physicochemical; conditions: adsorption/desorption 5% to 95% relative humidity
Method: Water vapor sorption data were collected on a VTI SGA-100 Vapor Sorption Analyzer. Adsorption and desorption data were collected over a range of 5% to 95% relative humidity (RH) at 10% RH intervals under a nitrogen purge. The samples were not dried prior to analyses. Equilibrium criteria used for the analyses were less than 0.0100% weight change in 5 minutes, with a maximum equilibration time of 3 hours if the weight criterion was not met. Data were not corrected for the initial moisture content of the samples. NaCl and PVP were used as calibration standards.

[2] = Solid-state stability by DSC thermogram (storage, wet granulation, direct compression, grinding); format: physicochemical; conditions: for stability when stored, in comparison to compound formed from Example 1: storage, ambient temperature and 75% relative humidity (Form III 5 months, Form IV 3 months)
Method: Differential scanning calorimetry (DSC) was performed using a TA Instruments differential scanning calorimeter either Q1000 or Q2000. The sample was placed into an aluminum DSC pan, and the weight accurately recorded. The pan was covered with a lid (sometimes the lid was perforated with a (laser) pinhole to allow for pressure release), and then either crimped or hermetically sealed. The sample cell was equilibrated at either 25° C. (Q2000) or 40° C. (Q1000) and heated under a nitrogen purge at a rate of 10° C./min, up to a final temperature of either 180 (Q1000)° C. or 250° C. (Q2000). Indium metal was used as the calibration standard.

[3] = cited from earlier work
[4] = in vivo, US 2007/018505 Example 32; cited from earlier work

| Compound | hygroscopicity by dynamic vapor adsorption [1] | stability when stored, in comparison to compound formed from Example 1 [2] | solid-state stability by DSC thermogram when subjected to direct compression and grinding [2] | solid-state stability by DSC thermogram when subjected to wet granulation [2] | further results |
| --- | --- | --- | --- | --- | --- |
| O[C@@H]1[C@H](O)[C@@H](CSc2ccccc2F)O[C@H]1n1cnc2c(N[C@@H]3CCC[C@H]3O)ncnc21 [Form IV, 2-{6-[((1R,2R)-2-hydroxycyclopentyl)amino]purin-9-yl}(4S,5S,2R,3R)-5-[(2-fluorophenylthio)methyl]oxolane-3,4-diol] | non-hygroscopic; also recorded: not hygroscopic | enhanced stability | – | – | – |
| O[C@@H]1[C@H](O)[C@@H](CSc2ccccc2F)O[C@H]1n1cnc2c(N[C@@H]3CCC[C@H]3O)ncnc21 [Example 1, 2-{6-[((1R,2R)-2-hydroxycyclopentyl)amino]purin-9-yl}(4S,5S,2R,3R)-5-[(2-fluorophenylthio)methyl]oxolane-3,4-diol] | high hygroscopicity | – | DSC thermogram change and instability | DSC thermogram change and instability | DSC thermogram upon storage ([2]; storage at 40° C. and 75% relative humidity for 2 months): DSC thermogram change |
| O[C@@H]1[C@H](O)[C@@H](CSc2ccccc2F)O[C@H]1n1cnc2c(N[C@@H]3CCC[C@H]3O)ncnc21 [Form III, 2-{6-[((1R,2R)-2-hydroxycyclopentyl)amino]purin-9-yl}(4S,5S,2R,3R)-5-[(2-fluorophenylthio)methyl]oxolane-3,4-diol] | non-hygroscopic; also recorded: not hygroscopic | enhanced stability | not affected | not affected | stability to moisture, mechanical stress, pharmaceutical processing, and temperature changes, relative to other crystalline forms ([2]; general statement): superior |
| Nc1ncnc2c1ncn2[C@@H]1O[C@H](CO)[C@@H](O)[C@H]1O [adenosine, Adenosine] | – | – | – | – | half-life [3]: less than 10 seconds |
| O[C@@H]1[C@H](O)[C@@H](CSc2ccccc2F)O[C@H]1n1cnc2c(N[C@@H]3CCC[C@H]3O)ncnc21 [GS-9667, 2-{6-[((1R,2R)-2-hydroxycyclopentyl)amino]purin-9-yl}(4S,5S,2R,3R)-5-[(2-fluorophenylthio)methyl]oxolane-3,4-diol] | – | – | – | – | circulating free fatty acides (FFA) [4]: lowering; insulin sensitivity [4]: improving; serum triglyceride (TG) levels [4]: lowering |
